Source: ChEMBL document CHEMBL4359851, “Design, synthesis, and biological evaluation of a new class of histone acetyltransferase p300 inhibitors” (Eur J Med Chem, 2019)
Calls of active or inactive are those of the source. No cut-off for these calls is given here.

System: not listed separately
Test: Reactivity with glutathione assessed as addition product with thiol group measured after 6 hrs by mass spectrometry
Type: physicochemical
Settings: not given

| Activity | SMILES |
| --- | --- |
| Not Active | Cc1cc(-c2ccc(/C=C3\C(=O)N(c4ccc(C(=O)O)cc4)N=C3C3CC3)s2)c(C(F)(F)F)cc1C |

System: not listed separately
Test: Solubility of compound in ethyl acetate
Type: physicochemical
Settings: not given

| solubility | SMILES |
| --- | --- |
| Soluble | CC1=NN(c2cc(F)c(O)c(F)c2)C(=O)/C1=C\c1ccc(-c2ccccc2C(F)F)o1 |
| Soluble | CC1=NN(c2cc(F)c(O)c(F)c2)C(=O)/C1=C\c1ccc(-c2cccc3c2C(=O)CC3)o1 |

Second part, the compound before the results:

| SMILES | solubility |
| --- | --- |
| CC1=NN(c2cc(F)c(O)c(F)c2)C(=O)/C1=C\c1ccc(-c2cc(C)c(C)cc2[N+](=O)[O-])o1 | Soluble |
| CC1=NN(c2cc(F)c(O)c(F)c2)C(=O)/C1=C\c1ccc(-c2cc(C)c(C)cc2C(F)(F)F)o1 | Soluble |

System: not listed separately
Test: Reactivity with glutathione assessed as addition product with thiol group measured at 50 degC by mass spectrometry
Type: physicochemical
Settings: not given

| Activity | SMILES |
| --- | --- |
| Active | Cc1cc(-c2ccc(/C=C3\C(=O)N(c4ccc(C(=O)O)cc4)N=C3C3CC3)s2)c(C(F)(F)F)cc1C |

System: not listed separately
Test: Solubility of compound in water
Type: physicochemical
Settings: buffer

| solubility | SMILES |
| --- | --- |
| Soluble | CC1=NN(c2cc(F)c(O)c(F)c2)C(=O)/C1=C\c1ccc(-c2ccccc2C(F)F)o1 |
| Soluble | CC1=NN(c2cc(F)c(O)c(F)c2)C(=O)/C1=C\c1ccc(-c2cccc3c2C(=O)CC3)o1 |

The next lines start with the compound.

| SMILES | solubility |
| --- | --- |
| CC1=NN(c2cc(F)c(O)c(F)c2)C(=O)/C1=C\c1ccc(-c2cc(C)c(C)cc2[N+](=O)[O-])o1 | Soluble |
| CC1=NN(c2cc(F)c(O)c(F)c2)C(=O)/C1=C\c1ccc(-c2cc(C)c(C)cc2C(F)(F)F)o1 | Soluble |

Molecular target: T1, Protein deacetylase HDAC6 (Homo sapiens, UniProt Q9UBN7)
T1 sequence (Q9UBN7 whole entry): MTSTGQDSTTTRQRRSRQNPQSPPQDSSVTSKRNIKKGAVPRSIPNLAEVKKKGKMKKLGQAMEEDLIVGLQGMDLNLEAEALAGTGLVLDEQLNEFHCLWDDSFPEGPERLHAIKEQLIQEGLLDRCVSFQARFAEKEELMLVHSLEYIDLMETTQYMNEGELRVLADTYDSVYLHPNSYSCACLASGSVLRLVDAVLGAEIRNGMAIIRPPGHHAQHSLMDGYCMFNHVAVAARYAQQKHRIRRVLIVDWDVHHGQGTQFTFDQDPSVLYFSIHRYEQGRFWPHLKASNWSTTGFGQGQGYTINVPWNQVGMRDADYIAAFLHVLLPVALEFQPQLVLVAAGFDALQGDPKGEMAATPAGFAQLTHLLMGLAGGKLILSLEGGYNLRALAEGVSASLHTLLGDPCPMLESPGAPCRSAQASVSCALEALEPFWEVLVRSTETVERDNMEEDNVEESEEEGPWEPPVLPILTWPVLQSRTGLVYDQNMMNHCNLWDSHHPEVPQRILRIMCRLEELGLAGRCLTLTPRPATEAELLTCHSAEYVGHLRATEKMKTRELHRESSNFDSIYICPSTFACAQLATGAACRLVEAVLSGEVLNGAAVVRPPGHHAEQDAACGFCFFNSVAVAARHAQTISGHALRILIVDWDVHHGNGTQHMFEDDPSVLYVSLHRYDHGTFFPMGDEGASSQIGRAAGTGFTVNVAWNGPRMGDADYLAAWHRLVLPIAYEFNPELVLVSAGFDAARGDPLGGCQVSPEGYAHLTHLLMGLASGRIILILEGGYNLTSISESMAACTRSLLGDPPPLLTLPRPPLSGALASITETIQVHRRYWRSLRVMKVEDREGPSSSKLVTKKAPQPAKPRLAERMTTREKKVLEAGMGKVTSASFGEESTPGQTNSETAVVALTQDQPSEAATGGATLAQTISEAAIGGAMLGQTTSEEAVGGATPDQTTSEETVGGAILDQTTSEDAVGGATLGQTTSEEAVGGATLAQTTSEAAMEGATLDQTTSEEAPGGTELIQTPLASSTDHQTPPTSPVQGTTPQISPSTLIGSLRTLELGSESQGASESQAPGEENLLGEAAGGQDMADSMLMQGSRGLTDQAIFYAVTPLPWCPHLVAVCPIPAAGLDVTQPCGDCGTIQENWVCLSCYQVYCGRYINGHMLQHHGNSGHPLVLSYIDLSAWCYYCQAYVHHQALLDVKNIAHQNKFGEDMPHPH
Test: Inhibition of recombinant HDAC6 (unknown origin) measured after 30 mins by fluorescence assay
Settings: not given

| IC50 | SMILES |
| --- | --- |
| 25.1 µM | Cc1cc(-c2ccc(/C=C3\C(=O)N(c4ccc(C(=O)O)cc4)N=C3C3CC3)s2)c(C(F)(F)F)cc1C |

System: not listed separately
Test: Reactivity with dithiothretol assessed as addition product with thiol group measured after 6 hrs by mass spectrometry
Type: physicochemical
Settings: not given

| Activity | SMILES |
| --- | --- |
| Not Active | Cc1cc(-c2ccc(/C=C3\C(=O)N(c4ccc(C(=O)O)cc4)N=C3C3CC3)s2)c(C(F)(F)F)cc1C |

Molecular target: T2, Histone acetyltransferase p300 (Homo sapiens, UniProt Q09472)
T2 sequence (Q09472 whole entry): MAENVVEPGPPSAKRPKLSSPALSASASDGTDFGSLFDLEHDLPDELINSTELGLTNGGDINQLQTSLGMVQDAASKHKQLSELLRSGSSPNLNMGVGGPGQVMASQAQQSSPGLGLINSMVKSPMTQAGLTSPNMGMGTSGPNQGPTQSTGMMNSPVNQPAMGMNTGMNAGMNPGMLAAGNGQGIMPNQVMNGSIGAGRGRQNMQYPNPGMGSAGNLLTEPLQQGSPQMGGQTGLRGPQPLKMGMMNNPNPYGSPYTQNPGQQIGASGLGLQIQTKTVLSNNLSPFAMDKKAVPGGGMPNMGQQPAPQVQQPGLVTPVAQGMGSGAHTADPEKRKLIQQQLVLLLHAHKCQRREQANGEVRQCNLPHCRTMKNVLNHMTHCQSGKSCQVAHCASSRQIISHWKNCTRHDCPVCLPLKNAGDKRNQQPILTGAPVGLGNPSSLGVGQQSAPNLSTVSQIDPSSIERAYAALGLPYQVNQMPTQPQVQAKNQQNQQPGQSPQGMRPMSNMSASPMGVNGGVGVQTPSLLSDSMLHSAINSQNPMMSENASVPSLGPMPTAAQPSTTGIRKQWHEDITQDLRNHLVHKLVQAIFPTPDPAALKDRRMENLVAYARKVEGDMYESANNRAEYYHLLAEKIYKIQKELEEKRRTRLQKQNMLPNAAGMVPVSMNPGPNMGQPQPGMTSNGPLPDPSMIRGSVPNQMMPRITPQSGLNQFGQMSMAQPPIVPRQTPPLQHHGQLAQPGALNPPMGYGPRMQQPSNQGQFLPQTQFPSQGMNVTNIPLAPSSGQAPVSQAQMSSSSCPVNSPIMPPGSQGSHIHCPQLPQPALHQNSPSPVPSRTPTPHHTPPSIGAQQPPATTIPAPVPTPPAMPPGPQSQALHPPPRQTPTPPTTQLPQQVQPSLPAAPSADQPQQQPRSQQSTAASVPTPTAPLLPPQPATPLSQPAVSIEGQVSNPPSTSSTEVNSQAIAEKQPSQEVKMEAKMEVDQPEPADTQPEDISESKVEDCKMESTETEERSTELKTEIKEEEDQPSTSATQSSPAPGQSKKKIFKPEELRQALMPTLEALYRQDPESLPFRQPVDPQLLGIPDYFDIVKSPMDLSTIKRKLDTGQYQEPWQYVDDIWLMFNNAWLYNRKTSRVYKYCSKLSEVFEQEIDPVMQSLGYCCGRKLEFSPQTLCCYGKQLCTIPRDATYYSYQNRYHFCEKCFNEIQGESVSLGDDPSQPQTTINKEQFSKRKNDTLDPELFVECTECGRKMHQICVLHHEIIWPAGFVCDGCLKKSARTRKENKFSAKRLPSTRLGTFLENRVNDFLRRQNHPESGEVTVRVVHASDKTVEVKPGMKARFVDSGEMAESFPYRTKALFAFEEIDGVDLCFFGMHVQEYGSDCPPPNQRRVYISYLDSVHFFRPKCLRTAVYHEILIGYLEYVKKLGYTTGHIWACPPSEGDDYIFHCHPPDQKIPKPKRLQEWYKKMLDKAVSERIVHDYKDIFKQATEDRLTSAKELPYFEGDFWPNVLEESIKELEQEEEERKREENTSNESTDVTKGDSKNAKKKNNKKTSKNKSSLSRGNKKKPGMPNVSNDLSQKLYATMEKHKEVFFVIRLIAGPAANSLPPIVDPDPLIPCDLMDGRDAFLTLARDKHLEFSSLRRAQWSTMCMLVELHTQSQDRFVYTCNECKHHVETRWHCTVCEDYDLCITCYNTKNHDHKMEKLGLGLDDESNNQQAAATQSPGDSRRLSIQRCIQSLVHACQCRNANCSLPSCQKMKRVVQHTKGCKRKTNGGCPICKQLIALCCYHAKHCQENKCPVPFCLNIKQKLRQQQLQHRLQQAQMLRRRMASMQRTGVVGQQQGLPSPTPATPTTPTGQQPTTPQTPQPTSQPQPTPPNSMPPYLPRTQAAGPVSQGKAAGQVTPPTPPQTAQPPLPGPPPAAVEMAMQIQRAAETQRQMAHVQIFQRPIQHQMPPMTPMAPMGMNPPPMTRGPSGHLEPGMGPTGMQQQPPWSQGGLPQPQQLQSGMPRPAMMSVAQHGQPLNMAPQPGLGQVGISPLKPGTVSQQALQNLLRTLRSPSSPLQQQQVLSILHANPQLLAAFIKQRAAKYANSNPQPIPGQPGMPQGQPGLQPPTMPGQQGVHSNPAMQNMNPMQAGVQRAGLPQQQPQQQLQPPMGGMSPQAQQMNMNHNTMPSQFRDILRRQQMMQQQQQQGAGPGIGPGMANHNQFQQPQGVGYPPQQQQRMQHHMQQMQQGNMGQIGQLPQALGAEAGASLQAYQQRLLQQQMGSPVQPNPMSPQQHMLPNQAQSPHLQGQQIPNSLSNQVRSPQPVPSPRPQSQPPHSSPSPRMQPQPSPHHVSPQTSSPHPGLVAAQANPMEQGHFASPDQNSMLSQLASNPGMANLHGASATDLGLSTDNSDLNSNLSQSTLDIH
Test: Inhibition of p300 in human U2932 cells assessed as reduction in H3K27 acetylation at 10 uM measured after 4 days in presence of EZH2 inhibitor EPZ6438 by Western blot analysis
Type: cell-based
Settings: not given

| inhibition | SMILES |
| --- | --- |
| Active | CC1=NN(c2ccc(C(=O)O)cc2)C(=O)/C1=C\c1ccc(-c2cccc3c2C(=O)CC3)o1 |
| Active | CC1=NN(c2cc(F)c(O)c(F)c2)C(=O)/C1=C\c1ccc(-c2ccccc2C(F)F)o1 |
| Active | CC1=NN(c2cc(F)c(O)c(F)c2)C(=O)/C1=C\c1ccc(-c2cccc3c2C(=O)CC3)o1 |

The next lines start with the compound.

| SMILES | inhibition |
| --- | --- |
| CC1=NN(c2cc(F)c(O)c(F)c2)C(=O)/C1=C\c1ccc(-c2cc(C)c(C)cc2[N+](=O)[O-])o1 | Active |
| Cc1cc(-c2ccc(/C=C3\C(=O)N(c4ccc(C(=O)O)cc4)N=C3C3CC3)s2)c(C(F)(F)F)cc1C | Active |
| CC1=NN(c2ccc(C(=O)O)cc2)C(=O)/C1=C\c1ccc(-c2ccccc2OC(F)(F)F)o1 | Active |
| CC1=NN(c2cc(F)c(O)c(F)c2)C(=O)/C1=C\c1ccc(-c2cc(C)c(C)cc2C(F)(F)F)o1 | Active |

System: not listed separately
Test: Reactivity with dithiothretol assessed as addition product with thiol group measured at 50 degC by mass spectrometry
Type: physicochemical
Settings: not given

| Activity | SMILES |
| --- | --- |
| Active | Cc1cc(-c2ccc(/C=C3\C(=O)N(c4ccc(C(=O)O)cc4)N=C3C3CC3)s2)c(C(F)(F)F)cc1C |

System: MCF7
Test: Antiproliferative activity against HER2-negative human MCF7 cells measured after 6 days of incubation by sulforhodamine B assay
Type: functional, cell-based
Settings: MCF7, 144 h

| IC50 | SMILES |
| --- | --- |
| 26.8 µM | CC1=NN(c2ccc(C(=O)O)cc2)C(=O)/C1=C\c1ccc(-c2cccc3c2C(=O)CC3)o1 |
| 22.5 µM | Cc1cc(-c2ccc(/C=C3\C(=O)N(c4ccc(C(=O)O)cc4)N=C3C3CC3)s2)c(C(F)(F)F)cc1C |
| 23.9 µM | CC1=NN(c2ccc(C(=O)O)cc2)C(=O)/C1=C\c1ccc(-c2ccccc2OC(F)(F)F)o1 |

Molecular target: Histone deacetylase 2 (Homo sapiens, UniProt Q92769)
Sequence (Q92769 whole entry): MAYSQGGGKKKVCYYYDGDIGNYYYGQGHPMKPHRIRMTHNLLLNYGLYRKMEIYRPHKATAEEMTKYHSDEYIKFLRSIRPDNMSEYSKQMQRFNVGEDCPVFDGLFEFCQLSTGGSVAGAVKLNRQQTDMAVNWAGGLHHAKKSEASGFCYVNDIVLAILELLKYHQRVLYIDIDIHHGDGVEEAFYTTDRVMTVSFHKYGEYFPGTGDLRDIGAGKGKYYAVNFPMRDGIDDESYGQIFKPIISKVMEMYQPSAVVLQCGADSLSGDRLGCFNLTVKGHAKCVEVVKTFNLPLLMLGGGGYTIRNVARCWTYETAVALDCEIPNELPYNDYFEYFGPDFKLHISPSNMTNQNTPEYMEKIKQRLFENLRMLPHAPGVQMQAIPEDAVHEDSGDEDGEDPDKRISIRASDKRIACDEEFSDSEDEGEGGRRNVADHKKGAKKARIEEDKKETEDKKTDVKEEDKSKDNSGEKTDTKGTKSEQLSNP
Test: Inhibition of recombinant HDAC2 (unknown origin) measured after 30 mins by fluorescence assay
Settings: not given

| IC50 | SMILES |
| --- | --- |
| > 100 µM | Cc1cc(-c2ccc(/C=C3\C(=O)N(c4ccc(C(=O)O)cc4)N=C3C3CC3)s2)c(C(F)(F)F)cc1C |

Molecular target: Histone deacetylase 3 (Homo sapiens, UniProt O15379)
Sequence (O15379 whole entry): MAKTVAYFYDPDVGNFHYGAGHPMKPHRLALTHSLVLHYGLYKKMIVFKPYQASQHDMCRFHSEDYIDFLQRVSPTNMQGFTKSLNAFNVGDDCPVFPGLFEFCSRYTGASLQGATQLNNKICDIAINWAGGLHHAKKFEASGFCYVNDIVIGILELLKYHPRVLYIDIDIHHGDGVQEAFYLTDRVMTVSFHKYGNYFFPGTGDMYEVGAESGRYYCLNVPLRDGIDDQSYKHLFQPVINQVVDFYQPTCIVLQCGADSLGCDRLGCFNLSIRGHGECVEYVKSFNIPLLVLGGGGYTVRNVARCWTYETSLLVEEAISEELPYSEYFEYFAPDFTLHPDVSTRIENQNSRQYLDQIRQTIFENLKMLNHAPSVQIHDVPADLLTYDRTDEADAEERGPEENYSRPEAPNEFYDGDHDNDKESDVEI
Test: Inhibition of recombinant HDAC3 (unknown origin) measured after 30 mins by fluorescence assay
Settings: not given

| IC50 | SMILES |
| --- | --- |
| > 100 µM | Cc1cc(-c2ccc(/C=C3\C(=O)N(c4ccc(C(=O)O)cc4)N=C3C3CC3)s2)c(C(F)(F)F)cc1C |

Molecular target: Histone deacetylase 1 (Homo sapiens, UniProt Q13547)
Sequence (Q13547 whole entry): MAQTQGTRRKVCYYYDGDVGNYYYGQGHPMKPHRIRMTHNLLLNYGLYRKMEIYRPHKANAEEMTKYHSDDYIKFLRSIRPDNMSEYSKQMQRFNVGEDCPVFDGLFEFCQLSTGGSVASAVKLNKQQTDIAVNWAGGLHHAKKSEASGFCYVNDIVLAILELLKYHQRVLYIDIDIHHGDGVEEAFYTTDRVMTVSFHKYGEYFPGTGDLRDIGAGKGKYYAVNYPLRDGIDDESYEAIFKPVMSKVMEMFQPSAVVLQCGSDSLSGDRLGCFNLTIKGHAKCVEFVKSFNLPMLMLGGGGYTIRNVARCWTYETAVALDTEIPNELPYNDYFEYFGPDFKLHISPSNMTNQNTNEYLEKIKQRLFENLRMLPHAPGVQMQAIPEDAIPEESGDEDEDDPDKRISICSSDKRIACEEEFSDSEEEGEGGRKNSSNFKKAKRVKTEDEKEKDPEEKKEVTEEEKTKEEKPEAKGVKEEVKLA
Test: Inhibition of recombinant HDAC1 (unknown origin) measured after 30 mins by fluorescence assay
Settings: not given

| IC50 | SMILES |
| --- | --- |
| > 100 µM | Cc1cc(-c2ccc(/C=C3\C(=O)N(c4ccc(C(=O)O)cc4)N=C3C3CC3)s2)c(C(F)(F)F)cc1C |

Molecular target: T2, Histone acetyltransferase p300
Test: Inhibition of p300 (unknown origin) using biotinylated histone H3 (1 to 21 residues) as substrate measured after 90 mins in presence of Acetyl CoA by AlphaLISA assay
Settings: not given

| IC50 | SMILES |
| --- | --- |
| 0.58 µM | CC1=NN(c2ccc(C(=O)O)cc2)C(=O)/C1=C\c1ccc(-c2cccc3c2C(=O)CC3)o1 |
| 6.05 µM | CC1=NN(c2cc(F)c(O)c(F)c2)C(=O)/C1=C\c1ccc(-c2ccccc2C(F)F)o1 |
| 3.73 µM | CC1=NN(c2cc(F)c(O)c(F)c2)C(=O)/C1=C\c1ccc(-c2cccc3c2C(=O)CC3)o1 |

Second part, the compound before the results:

| SMILES | IC50 |
| --- | --- |
| CC1=NN(c2cc(F)c(O)c(F)c2)C(=O)/C1=C\c1ccc(-c2cc(C)c(C)cc2[N+](=O)[O-])o1 | 4.8 µM |
| Cc1cc(-c2ccc(/C=C3\C(=O)N(c4ccc(C(=O)O)cc4)N=C3C3CC3)s2)c(C(F)(F)F)cc1C | 0.16 µM |
| CC1=NN(c2ccc(C(=O)O)cc2)C(=O)/C1=C\c1ccc(-c2ccccc2OC(F)(F)F)o1 | 1.13 µM |
| CC1=NN(c2cc(F)c(O)c(F)c2)C(=O)/C1=C\c1ccc(-c2cc(C)c(C)cc2C(F)(F)F)o1 | 7.31 µM |

System: T47D
Test: Antiproliferative activity against HER2-negative human T47D cells measured after 6 days of incubation by sulforhodamine B assay
Type: functional, cell-based
Settings: 144 h

| IC50 | SMILES |
| --- | --- |
| 10 µM | CC1=NN(c2ccc(C(=O)O)cc2)C(=O)/C1=C\c1ccc(-c2cccc3c2C(=O)CC3)o1 |
| 5.08 µM | Cc1cc(-c2ccc(/C=C3\C(=O)N(c4ccc(C(=O)O)cc4)N=C3C3CC3)s2)c(C(F)(F)F)cc1C |
| 7.67 µM | CC1=NN(c2ccc(C(=O)O)cc2)C(=O)/C1=C\c1ccc(-c2ccccc2OC(F)(F)F)o1 |

Molecular target: T3, Histone deacetylase 8 (Homo sapiens, UniProt Q9BY41)
T3 sequence (Q9BY41 whole entry): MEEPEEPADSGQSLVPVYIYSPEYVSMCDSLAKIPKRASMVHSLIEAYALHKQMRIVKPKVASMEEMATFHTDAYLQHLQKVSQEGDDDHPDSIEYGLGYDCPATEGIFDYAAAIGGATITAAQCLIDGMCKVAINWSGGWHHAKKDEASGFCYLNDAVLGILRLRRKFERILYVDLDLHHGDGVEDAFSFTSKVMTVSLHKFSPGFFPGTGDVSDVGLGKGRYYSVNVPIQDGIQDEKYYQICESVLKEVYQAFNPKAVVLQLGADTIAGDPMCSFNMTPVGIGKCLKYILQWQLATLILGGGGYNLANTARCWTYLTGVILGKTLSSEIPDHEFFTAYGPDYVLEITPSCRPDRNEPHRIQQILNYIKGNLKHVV
Test: Inhibition of recombinant HDAC8 (unknown origin) measured after 30 mins by fluorescence assay
Settings: not given

| IC50 | SMILES |
| --- | --- |
| > 100 µM | Cc1cc(-c2ccc(/C=C3\C(=O)N(c4ccc(C(=O)O)cc4)N=C3C3CC3)s2)c(C(F)(F)F)cc1C |
